In data set [1] the test system is B/Florida/04/2006. Kind of data set: Antiviral activity (drug efficacy evaluation by concentration) against B/Florida/04/2006. Type of data set: cell-based, B type influenza virus.
Data set [2] relates to A/Perth/16/2009 (H3N2). Kind of data set: Antiviral activity (drug efficacy evaluation by concentration) against A/Perth/16/2009 (H3N2). Type of data set: cell-based, A type influenza virus. The following applies: Influenza A virus.
Data set [3] deals with A/California/07/2009 (H1N1). The data set can be described thus: Antiviral activity (drug efficacy evaluation by concentration) against A/California/07/2009 (H1N1). Particulars: Influenza A virus. Type of data set: cell-based, A type influenza virus.
The nature of data set [4]: in vitro.
[5] abbreviates: read-out: EC50 B/Florida/04/2006, B/Florida/04/2006.
Where [6] appears, read: H3N2, A/Perth/16/2009 (H3N2), read-out: EC50 A/Perth/16/2009 (H3N2).
Where [7] appears, read: H1N1, A/California/07/2009 (H1N1), read-out: EC50 A/California/07/2009 (H1N1).
The mark [8] stands for this setting: CC50 B/Florida/04/2006, cytotoxicity in the B/Florida/04/2006 assay.
Where [9] appears, read: CC50, third EC50/CC50 column pair (c7), beside the EC50 of c6.

Where two headings read alike, the source gives them in different places. A value given as a limit tells only on which side of the number the result lay.

For orientation: melting point means the temperature, or range, at which the solid turns liquid. As for `c1ccc(Nc2nnc(SCc3ccccc3-c3ccccc3)o2)cc1` [Compound 71, 5-(([1,1′-biphenyl]-2-ylmethyl)thio)-N-phenyl-1,3,4-oxadiazol-2-amine], the melting point stood at 172.1 °C. Moreover, in data set [1] (setting [5]), the EC50 came out at 22.8 µM. Further, the EC50 in data set [2] (setting [6]) stood at 14.2 µM. Also, the EC50 in data set [3] (setting [7]) was determined as 21 µM. This molecule had a CC50 in data set [4] (setting [8]) of 6.53 µM.

On to `Cc1cc(C(F)(F)F)ccc1/C=C/c1nnc(Cc2cccc(Br)c2)o1` [Compound 198, 2-(3-bromobenzyl)-5-(2-methyl-4-(trifluoromethyl)styryl)-1,3,4-oxadiazole], for which the melting point stood at 116 °C. The molecule also yielded an EC50 in data set [1] of 47.9 µM. Besides, in data set [2] (H3N2, read-out: EC50), the EC50 was above 50 µM. Also, in data set [3] (H1N1, read-out: EC50), the EC50 came to 35.7 µM. Further, the CC50 in data set [4] (CC50, beside the EC50 of c2) is above 50 µM. This molecule also yielded a CC50 in data set [4] (CC50, beside the EC50 of c4) above 50 µM. Also, the CC50 in data set [4] (setting [9]) is above 50 µM.

On to `FC(F)(F)c1ccc(Cl)c(/C=C/c2nnc(Cc3cccc(Br)c3)o2)c1` [Compound 199, 2-(3-bromobenzyl)-5-(2-chloro-5-(trifluoromethyl)styryl)-1,3,4-oxadiazole], for which the melting point was determined as 106.9 °C. The molecule further registered an EC50 in data set [1] of 9.89 µM. Further, in data set [2] (H3N2, read-out: EC50), the EC50 was determined as 6.3 µM. Further, the EC50 in data set [3] (H1N1, read-out: EC50) was determined as 8.55 µM. In data set [4] (CC50, beside the EC50 of c2), this molecule displayed a CC50 above 50 µM. Besides, the CC50 in data set [4] (CC50, beside the EC50 of c4) is above 50 µM. The CC50 in data set [4] (setting [9]) was above 50 µM.

With `Cc1nn(Cc2nnc(SCc3ccccc3-c3ccc(Cl)cc3)o2)c(C)c1Br` [Compound 33, 2-((4-bromo-3,5-dimethyl-1H-pyrazol-1-yl)methyl)-5-(((4′-chloro-[1,1′-biphenyl]-2-yl)methyl)thio)-1,3,4-oxadiazole], the melting point came to 84.7 °C. Also, in data set [1] (setting [5]), the EC50 was 1.46 µM. In addition, the EC50 in data set [2] (setting [6]) came out at 0.5 µM. For the same molecule, in data set [3] (setting [7]), the EC50 came out at 0.6 µM. The CC50 in data set [4] (setting [8]) was found to be 6.28 µM.

The molecule `Clc1ccc(/C=C/c2nnc(Cc3cccc(Br)c3)o2)c(Cl)c1` [Compound 192, 2-(3-bromobenzyl)-5-(2,4-dichlorostyryl)-1,3,4-oxadiazole] came in with a melting point of 142.4 °C. Also, in data set [1], the EC50 is 5.49 µM. For the same molecule, in data set [2] (H3N2, read-out: EC50), the EC50 is 2.6 µM. Besides, the EC50 in data set [3] (H1N1, read-out: EC50) was 4.66 µM. The same molecule had a CC50 in data set [4] (CC50, beside the EC50 of c2) above 50 µM. For the same molecule, the CC50 in data set [4] (CC50, beside the EC50 of c4) was above 50 µM. This molecule also gave a CC50 in data set [4] (setting [9]) above 50 µM.

`Fc1cccc(/C=C/c2nnc(Cc3cccc(Br)c3)o2)c1Cl` [Compound 194, 2-(3-bromobenzyl)-5-(2-chloro-3-fluorostyryl)-1,3,4-oxadiazole] gave a melting point of 140.2 °C. Moreover, in data set [1], the EC50 is 1.53 µM. For the same molecule, the EC50 in data set [2] (H3N2, read-out: EC50) is 1.43 µM. In addition, in data set [3] (H1N1, read-out: EC50), the EC50 was 1.31 µM. In data set [4] (CC50, beside the EC50 of c2), this molecule yielded a CC50 of 49.9 µM. The molecule also had a CC50 in data set [4] (CC50, beside the EC50 of c4) above 50 µM. Besides, the CC50 in data set [4] (setting [9]) was above 50 µM.

`CC(C)c1cccc(Cc2nnc(/C=C/c3ccc(F)cc3Cl)o2)c1` [Compound 182, (E)-2-(2-chloro-4-fluorostyryl)-5-(3-isopropylbenzyl)-1,3,4-oxadiazole] gave a melting point of 117.3 °C. In data set [1], this molecule showed an EC50 of 0.549 µM. Further, in data set [2] (H3N2, read-out: EC50), the EC50 came to 0.373 µM. In data set [3] (H1N1, read-out: EC50), the EC50 was determined as 0.617 µM. The CC50 in data set [4] (CC50, beside the EC50 of c2) was above 50 µM. The same molecule returned a CC50 in data set [4] (CC50, beside the EC50 of c4) above 50 µM. Further, in data set [4] (setting [9]), the CC50 was above 50 µM.

As for `Brc1ccc(Cc2noc(/C=C/c3ccccc3)n2)cc1` [Compound 174, (E)-3-(4-bromobenzyl)-5-styryl-1,2,4-oxadiazole], the melting point was determined as 86.7 °C. The EC50 in data set [1] worked out at 1.45 µM. The EC50 in data set [2] (H3N2, read-out: EC50) is 1.54 µM. Further, the EC50 in data set [3] (H1N1, read-out: EC50) was determined as 3.78 µM. This molecule gave a CC50 in data set [4] (CC50, beside the EC50 of c2) of 6.53 µM. In addition, the CC50 in data set [4] (CC50, beside the EC50 of c4) was found to be 5.46 µM. Besides, the CC50 in data set [4] (setting [9]) worked out at 6.3 µM.

`COc1ccccc1/C=C/c1nnc(Nc2ccc(Br)cc2)o1` [Compound 120, (E)-N-(4-bromophenyl)-5-(2-methoxystyryl)-1,3,4-oxadiazol-2-amine] returned a melting point of 232.4 °C. In data set [1], this molecule showed an EC50 of 17.4 µM. Moreover, the EC50 in data set [2] (H3N2, read-out: EC50) was 18.1 µM. For the same molecule, the EC50 in data set [3] (H1N1, read-out: EC50) came out at 23.1 µM. The same molecule displayed a CC50 in data set [4] (CC50, beside the EC50 of c2) above 50 µM. This molecule displayed a CC50 in data set [4] (CC50, beside the EC50 of c4) above 50 µM.

`Cc1ccc(Cc2nnc(/C=C/c3ccc(F)cc3Cl)o2)cc1Br` [Compound 181, (E)-2-(3-bromo-4-methylbenzyl)-5-(2-chloro-4-fluorostyryl)-1,3,4-oxadiazole] displayed a melting point of 139 °C. The molecule further had an EC50 in data set [1] of 8.29 µM. The EC50 in data set [2] (H3N2, read-out: EC50) turned out to be 5.56 µM. In addition, the EC50 in data set [3] (H1N1, read-out: EC50) was 10.9 µM. The molecule further came in with a CC50 in data set [4] (CC50, beside the EC50 of c2) above 50 µM. In data set [4] (CC50, beside the EC50 of c4), the CC50 is above 50 µM. The CC50 in data set [4] (setting [9]) was above 50 µM.

The molecule `O=S(=O)(Cc1ccccc1-c1ccccc1)c1nnc(Cc2ccc(Br)cc2)o1` [Compound 60, 2-(([1,1′-biphenyl]-2-ylmethyl)sulfonyl)-5-(4-bromobenzyl)-1,3,4-oxadiazole] had a melting point of 134.2 °C. Further, the EC50 in data set [1] (setting [5]) turned out to be 4.11 µM. In addition, in data set [2] (setting [6]), the EC50 stood at 6.36 µM. In addition, the EC50 in data set [3] (setting [7]) worked out at 12.1 µM. In addition, the CC50 in data set [4] (setting [8]) stood at 8.46 µM.

Take `Cc1ccccc1/C=C/c1nnc(Cc2ccc(Br)cc2)o1` [Compound 170, 2-(4-bromobenzyl)-5-(2-methylstyryl)-1,3,4-oxadiazole]: the melting point stood at 108.5 °C. The molecule further displayed an EC50 in data set [1] of 2.05 µM. The EC50 in data set [2] (H3N2, read-out: EC50) amounted to 2.04 µM. For the same molecule, in data set [3] (H1N1, read-out: EC50), the EC50 turned out to be 2 µM. In data set [4] (CC50, beside the EC50 of c2), this molecule yielded a CC50 of 8.53 µM. For the same molecule, the CC50 in data set [4] (CC50, beside the EC50 of c4) amounted to 6.63 µM. Besides, the CC50 in data set [4] (setting [9]) worked out at 9.08 µM.

For `Brc1ccc(Cc2nc(/C=C/c3ccccc3)no2)cc1` [Compound 183, (E)-5-(4-bromobenzyl)-3-styryl-1,2,4-oxadiazole], the melting point amounted to 78.4 °C. Further, the EC50 in data set [1] turned out to be 1.86 µM. In data set [2] (H3N2, read-out: EC50), the EC50 worked out at 0.904 µM. In addition, the EC50 in data set [3] (H1N1, read-out: EC50) came to 1.33 µM. In data set [4] (CC50, beside the EC50 of c2), the CC50 was above 50 µM. In data set [4] (CC50, beside the EC50 of c4), this molecule registered a CC50 above 50 µM. In data set [4] (setting [9]), this molecule came in with a CC50 above 50 µM.

With `CC(C)c1ccccc1/C=C/c1nnc(Cc2cccc(Br)c2)o1` [Compound 130, 2-(3-bromobenzyl)-5-(2-isopropylstyryl)-1,3,4-oxadiazole], the melting point came out at 79.3 °C. In data set [1], this molecule came in with an EC50 of 36.2 µM. In addition, the EC50 in data set [2] (H3N2, read-out: EC50) amounted to 32.8 µM. The EC50 in data set [3] (H1N1, read-out: EC50) is 42.4 µM. In addition, the CC50 in data set [4] (CC50, beside the EC50 of c2) is above 50 µM. Besides, the CC50 in data set [4] (CC50, beside the EC50 of c4) is above 50 µM. Also, the CC50 in data set [4] (setting [9]) is above 50 µM.

The molecule `Fc1ccc(/C=C/c2nnc(Cc3ccc(Br)cc3)o2)c(Cl)c1` [Compound 86, (E)-2-(4-bromobenzyl)-5-(2-chloro-4-fluorostyryl)-1,3,4-oxadiazole] registered a melting point of 147.9 °C. In data set [1], this molecule came in with an EC50 of 42 µM. Further, the EC50 in data set [2] (H3N2, read-out: EC50) is 45.7 µM. In addition, the EC50 in data set [3] (H1N1, read-out: EC50) came out at 2.7 µM. This molecule also displayed a CC50 in data set [4] (CC50, beside the EC50 of c2) above 50 µM. The CC50 in data set [4] (CC50, beside the EC50 of c4) is above 50 µM. The molecule further gave a CC50 in data set [4] (setting [9]) above 50 µM.

Molecule `Cc1cc(C)cc(Nc2nnc(SCc3ccccc3-c3ccccc3)o2)c1` [Compound 68, 5-(([1,1′-biphenyl]-2-ylmethyl)thio)-N-(3,5-dimethylphenyl)-1,3,4-oxadiazol-2-amine] returned a melting point of 232.2 °C. Besides, the EC50 in data set [1] (setting [5]) is 1.83 µM. For the same molecule, the EC50 in data set [2] (setting [6]) came out at 1.6 µM. In addition, in data set [3] (setting [7]), the EC50 was 2.77 µM. In addition, in data set [4] (setting [8]), the CC50 is above 50 µM.

(Values after patent US11149033B2, “Heteroaryl compound, enantiomer, diastereomer or pharmaceutically acceptable salt thereof, and antiviral composition containing same as active ingredient” (priority 2016, dated 2021).)
